Like-named read-outs stand apart in the source and are kept apart here.
What was measured:
[1] = test system: giant foxtail (Setaria faberi); assay: Test A pre-/postemergence plant response; type: in vivo; details: Setaria faberi, 240 h, read-out: Plant response rating, Foxtail, Giant; for pest or weed control at 125 g/ha: 125 g ai/ha; for pest or weed control at 500 g/ha: 500 g ai/ha; for pest or weed control at 31 g/ha: 31 g ai/ha
How it was run: (§1)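 Scores reflect visual plant injury relative to untreated controls on a 0–100 scale, recorded approximately 10 days after simultaneous preemergence soil spraying and postemergence spraying of one- to two-leaf seedlings grown in loam–sand.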

corn (Zea mays) = assay: Test A pre-/postemergence plant response; type: in vivo; details: Zea mays, 240 h; for Corn plant response rating (crop injury, 0 = no effect, 100 = complete kill) at 125 g/ha: 125 g ai/ha; for Corn plant response rating (crop injury, 0 = no effect, 100 = complete kill) at 500 g/ha: 500 g ai/ha; for Corn plant response rating (crop injury, 0 = no effect, 100 = complete kill) at 31 g/ha: 31 g ai/ha
How it was run: as §1

[2] = post-emergence, Postemergence, 0 to 100 scale, 0 no effect, 100 complete control
[3] = pre-emergence, Preemergence, 0 to 100 scale (0 no effect, 100 complete control)
[4] = post-emergence, Postemergence, 0 to 100 scale (0 no effect, 100 complete control)
[5] = pre-emergence, Preemergence, 0 to 100 scale, 0 is no effect, 100 is complete control

`Cc1cc(-c2ccc(Br)cc2)nn1-c1c(O)cnn(C2CCCCO2)c1=O` (stereo not drawn) [Compound 77, 4-[3-(4-bromophenyl)-5-methyl-1H-pyrazol-1-yl]-5-hydroxy-2-(tetrahydro-2H-pyran-2-yl)-3(2H)-pyridazinone] showed a pest or weed control at 125 g/ha [1, 2] of 80%, a pest or weed control at 500 g/ha [1, 2] of 100% and a pest or weed control at 125 g/ha [1, 3] of 30%. It also gave a pest or weed control at 500 g/ha [1, 3] of 100%, a Corn plant response rating (crop injury, 0 = no effect, 100 = complete kill) at 125 g/ha (corn (Zea mays); [2]) of 80% and a Corn plant response rating (crop injury, 0 = no effect, 100 = complete kill) at 500 g/ha (corn (Zea mays); [2]) of 100%. The Corn plant response rating (crop injury, 0 = no effect, 100 = complete kill) at 125 g/ha (corn (Zea mays); [3]) was 30% and the Corn plant response rating (crop injury, 0 = no effect, 100 = complete kill) at 500 g/ha (corn (Zea mays); [3]) was 80%.

In the case of `Cc1cn(-c2ccc(C(F)(F)F)cc2)nc1-c1c(O)cnn(C)c1=O` [Compound 85, 5-hydroxy-2-methyl-4-[4-methyl-1-[4-(trifluoromethyl)phenyl]-1H-pyrazol-3-yl]-3(2H)-pyridazinone], the pest or weed control at 31 g/ha [1, 4] is reported as 0%, the pest or weed control at 125 g/ha [1, 2] is reported as 60% and the pest or weed control at 31 g/ha [1, 5] is reported as 0%. The pest or weed control at 125 g/ha [1, 3] was 100%, the Corn plant response rating (crop injury, 0 = no effect, 100 = complete kill) at 31 g/ha (corn (Zea mays); [4]) was 0% and the Corn plant response rating (crop injury, 0 = no effect, 100 = complete kill) at 125 g/ha (corn (Zea mays); [2]) was 0%. For the same compound, the Corn plant response rating (crop injury, 0 = no effect, 100 = complete kill) at 31 g/ha (corn (Zea mays); [5]) was 0% and the Corn plant response rating (crop injury, 0 = no effect, 100 = complete kill) at 125 g/ha (corn (Zea mays); [3]) was 0%.

`Cn1ncc(O)c(-c2nn(-c3ccc(C(F)(F)F)cc3)cc2Br)c1=O` [Compound 87, 4-[4-bromo-1-[4-(trifluoromethyl)phenyl]-1H-pyrazol-3-yl]-5-hydroxy-2-methyl-3(2H)-pyridazinone] showed a pest or weed control at 31 g/ha [1, 4] of 20%, a pest or weed control at 125 g/ha [1, 2] of 80% and a pest or weed control at 31 g/ha [1, 5] of 20%. The pest or weed control at 125 g/ha [1, 3] was 90%, the Corn plant response rating (crop injury, 0 = no effect, 100 = complete kill) at 31 g/ha (corn (Zea mays); [4]) was 0% and the Corn plant response rating (crop injury, 0 = no effect, 100 = complete kill) at 125 g/ha (corn (Zea mays); [2]) was 40%. For the same compound, the Corn plant response rating (crop injury, 0 = no effect, 100 = complete kill) at 31 g/ha (corn (Zea mays); [5]) was 0% and the Corn plant response rating (crop injury, 0 = no effect, 100 = complete kill) at 125 g/ha (corn (Zea mays); [3]) was 20%.

From patent US20100267561A1, “HERBICIDAL PYRIDAZINONE DERIVATIVES” (priority 2007, published 2010)
